# Reference: patent US11292789B1 (priority 2020, dated 2022)
# Key:
# α-glucosidase = α-glucosidase (Saccharomyces cerevisiae, UniProt P53341); type: biochemical; settings: concentrations 0.01 to 0.25 mg/ml, FIG. 7
# Method: Next, 20 μl of P-NPG (5 mM) was added as a substrate and further incubated at 37° C. for 20 minutes. This reaction was stopped by adding 50 μl of Na2CO3 (0.1 M). […] Each experiment was performed three times. An inhibition rate (%) was evaluated using the following equation (inhibition (%)=[1−(sample/control)]×100).
# [1] = test system: 12-day-old cortical cell cultures; assay: Nerve cell protection against excitotoxin damage, MTT assay; type: cell-based; settings: for Cell viability from excitotoxin-induced neuron toxicity: cortical cell cultures pre-treated 1 hour, then glutamate, AMPA, NMDA, kinate, MTT after one day
# Method: Nerve cell protection ability was evaluated using Quinazole and MDPX-V2021 prepared according to Example 1 and MK-801 prepared according to Comparative Example 3.
# To evaluate the neuroprotective activity of Quinazole, MDPX-V2021 and MK-801 against damage due to excitotoxin, each of the samples was dissolved in ethanol (final concentration, 0.1%), and a 12-day-old cortical cell cultures were used. The cultures were respectively pre-treated with the samples for 1 hour and then exposed to 20 μM glutamate, 80 μM α-amino-3-hydroxy-5-methyl-4-isoxazolepropionic acid, 40 μM N-Methyl-D-aspartic acid and 200 μM kinate. Next, each of the cultures was additionally cultured in neurobasal medium for one day, and the survival rate of the nerve cells was measured by MTT assay.
# MTT tetrazolium (1 mg/mL) was added to neurons grown in 96-well plate, and then cultured at 37° C. for 1 hour. The reaction medium was carefully sucked, and then DMSO was added thereto to dissolve the blue formazan product. The survival rate of the nerve cells was estimated by quantifying an available formazan at 540 nm using a multi-mode plate reader. The test was repeated 3 times, and the cell viability was calculated according to 100×(excitotoxin OD+sample treatment-excitotoxin treatment OD)/(control OD-excitotoxin treatment OD).
# α-glucosidase, sequence (P53341 whole entry, looked up): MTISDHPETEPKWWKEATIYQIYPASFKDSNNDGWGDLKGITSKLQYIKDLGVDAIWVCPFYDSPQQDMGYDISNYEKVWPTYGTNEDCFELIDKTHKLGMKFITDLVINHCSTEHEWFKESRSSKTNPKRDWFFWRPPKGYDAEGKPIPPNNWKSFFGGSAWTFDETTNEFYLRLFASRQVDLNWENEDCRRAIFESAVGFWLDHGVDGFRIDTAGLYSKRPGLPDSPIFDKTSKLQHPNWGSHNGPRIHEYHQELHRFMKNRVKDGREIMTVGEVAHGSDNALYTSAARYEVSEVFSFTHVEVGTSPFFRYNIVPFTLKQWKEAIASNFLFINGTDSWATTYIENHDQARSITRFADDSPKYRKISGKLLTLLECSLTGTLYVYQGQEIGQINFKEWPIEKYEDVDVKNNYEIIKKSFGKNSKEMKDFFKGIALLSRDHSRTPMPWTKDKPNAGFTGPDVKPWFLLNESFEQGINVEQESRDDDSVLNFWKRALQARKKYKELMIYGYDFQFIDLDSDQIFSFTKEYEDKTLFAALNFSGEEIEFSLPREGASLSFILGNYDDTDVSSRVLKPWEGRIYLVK
smiles,measurement,setting,value
"COc1ccc(-n2cnc3ccc(OC)cc3c2=O)c(COC(C)(C)C)c1 [MDPX-V2021, 3-{2-[(tert-butoxy)methyl]-4-methoxyphenyl}-6-methoxy-3,4-dihydroquinazolin-4-one]",inhibitory activity against α-glucosidase (in words),α-glucosidase,has inhibitory activity against α-glucosidase
same,Cell viability from excitotoxin-induced neuron toxicity,[1],84.083 ± 3.482%
same,cell viability compared with Quinazole (in words),"[1]; sample concentration range of 0.1 to 50 μM, FIG. 8",significantly higher
"CC12NC(Cc3ccccc31)c1ccccc12 (centres unmarked) [MK-801, reference compound]",Cell viability from excitotoxin-induced neuron toxicity,[1],78.830 ± 0.567%
"COc1ccc(-n2cnc3ccc(OC)cc3c2=O)c(CO)c1 [Quinazol A, Dictyoquinazol A, reference compound]",Cell viability from excitotoxin-induced neuron toxicity,[1],68.910 ± 1.406%
